Experimental data taken from patent US20170368089A1, “COMPOSITION FOR PREVENTING OR TREATING COLITIS” (UNIVERSITY-INDUSTRY COOPERATION GROUP OF KYUNG HEE …, priority 2012, published 2017).

System: IL-1 beta
Experiment: IL-1 beta expression in colon tissue (ELISA), TNBS colitis, second experiment
Type: in vivo, ICR male mice
Conditions: Table 9, extract-based samples, TNBS-treated mice, 10 mg/kg orally, 3 days
Description: Among the experimental groups, one group was set as a normal group, and for the experimental animals in other groups, colitis was induced with 2,4,6-trinitrobenzenesulfonic acid (TNBS). In detail, after lightly anesthetizing the experimental animals with ether, 0.1 ml of the solution prepared by mixing […] of 2,4,6-Trinitrobenzene sulfonic acid (NBS) solution with 50% ethanol was injected into the colon through the anus using a syringe having 1 ml volume and oval point, respectively; and then, the syringe was vertically picked up, and then, maintained for 30 seconds to induce the inflammation. Meanwhile, 0.1 ml of normal saline solution was orally administered to the normal group. Since then, from the next day, the sample dissolved in normal saline solution was orally administered in the volume that was decided in advance one time a day for 3 days. […]
250 μl of RIPA butter including protease inhibitor cocktail was added to 100 mg of the colon tissue of experimental animal, and then, the colon tissue was homogenized. […] While the supernatant was stored at −80° C., the expression amounts of IL-1 beta, IL-6, and TNF-alpha were measured using a 96-well ELISA plate kits (Pierce Biotechology, Inc., Rockford, Ill., USA).

Compound Nc1ccc(O)c(C(=O)O)c1 [mesalazine, Mesalazine] has an IL-1 beta conc. of 16.30 ± 3.38 pg/mg.
